Measurements: PMC4188576 (PLoS ONE, 2014)

Legend:
Na,K-ATPase α1 isoform [1] = target: T1, Na,K-ATPase α1 isoform (Mus musculus, UniProt Q8VDN2); assay: Na,K-ATPase activity of mouse kidney membranes, dose-response; assay type: biochemical
T1 construct: gene Atp1a1; native mouse kidney membrane preparation, primarily α1 isoform

Na,K-ATPase α1 isoform [2] = target: T2, Na,K-ATPase α1 isoform (Homo sapiens, UniProt P05023); assay: competition of 3H-ouabain radioligand binding on HeLa cells
T2 construct: gene ATP1A1; endogenous enzyme on HeLa cell monolayers

Pdr5p = target: T3, Pdr5p (Saccharomyces cerevisiae, UniProt P33302); assay: ATPase (Pi release) assay on Pdr5p-overexpressing plasma membranes, oligomycin-sensitive activity; assay type: biochemical
T3 construct: gene PDR5; plasma membranes containing the overexpressed Pdr5p (strain AD124567)
T3 sequence (P33302 whole entry): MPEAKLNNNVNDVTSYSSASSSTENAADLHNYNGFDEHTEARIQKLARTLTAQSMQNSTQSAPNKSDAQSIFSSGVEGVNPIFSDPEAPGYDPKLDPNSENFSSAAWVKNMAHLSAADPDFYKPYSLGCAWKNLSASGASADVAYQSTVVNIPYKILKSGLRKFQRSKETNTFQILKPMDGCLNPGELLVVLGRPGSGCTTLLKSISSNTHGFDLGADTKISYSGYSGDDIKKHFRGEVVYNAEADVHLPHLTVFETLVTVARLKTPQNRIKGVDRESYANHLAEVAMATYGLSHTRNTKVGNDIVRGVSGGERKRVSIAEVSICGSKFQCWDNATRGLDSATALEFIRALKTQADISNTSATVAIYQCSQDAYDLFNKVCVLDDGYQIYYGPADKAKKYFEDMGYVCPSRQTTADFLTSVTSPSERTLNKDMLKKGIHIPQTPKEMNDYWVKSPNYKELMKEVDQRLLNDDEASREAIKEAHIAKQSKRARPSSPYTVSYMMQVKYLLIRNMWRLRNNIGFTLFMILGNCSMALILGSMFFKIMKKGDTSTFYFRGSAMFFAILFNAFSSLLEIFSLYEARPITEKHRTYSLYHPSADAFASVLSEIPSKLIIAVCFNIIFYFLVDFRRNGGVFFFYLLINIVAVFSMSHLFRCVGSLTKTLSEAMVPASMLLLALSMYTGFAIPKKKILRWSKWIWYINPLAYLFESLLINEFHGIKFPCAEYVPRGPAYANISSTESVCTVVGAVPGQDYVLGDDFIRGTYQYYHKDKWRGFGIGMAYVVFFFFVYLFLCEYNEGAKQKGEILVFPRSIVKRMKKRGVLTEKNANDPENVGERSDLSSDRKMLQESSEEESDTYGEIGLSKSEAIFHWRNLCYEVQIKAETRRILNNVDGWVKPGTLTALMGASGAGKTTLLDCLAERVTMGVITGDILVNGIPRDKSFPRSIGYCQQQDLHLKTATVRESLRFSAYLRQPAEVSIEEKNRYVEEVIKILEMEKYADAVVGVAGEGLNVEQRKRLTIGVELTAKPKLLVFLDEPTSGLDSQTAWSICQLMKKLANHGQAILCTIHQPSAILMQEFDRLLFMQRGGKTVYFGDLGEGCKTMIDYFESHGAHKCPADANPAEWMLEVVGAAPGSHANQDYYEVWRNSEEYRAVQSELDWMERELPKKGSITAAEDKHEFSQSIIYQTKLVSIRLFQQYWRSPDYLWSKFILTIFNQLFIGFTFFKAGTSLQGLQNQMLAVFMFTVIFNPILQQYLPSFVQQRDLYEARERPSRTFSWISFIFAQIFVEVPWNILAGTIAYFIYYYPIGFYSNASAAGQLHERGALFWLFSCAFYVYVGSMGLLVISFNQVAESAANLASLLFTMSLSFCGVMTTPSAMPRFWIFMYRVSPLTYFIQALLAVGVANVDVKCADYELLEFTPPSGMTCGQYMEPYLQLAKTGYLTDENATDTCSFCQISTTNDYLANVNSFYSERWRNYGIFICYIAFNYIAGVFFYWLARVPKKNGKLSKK

C[C@H]1O[C@@H](O[C@H]2[C@@H](O)C[C@H](O[C@H]3[C@@H](O)C[C@H](O[C@H]4CC[C@@]5(C)[C@H](CC[C@@H]6[C@@H]5C[C@@H](O)[C@]5(C)[C@@H](C7=CC(=O)O/C7=C\c7ccccc7)CC[C@]65O)C4)O[C@@H]3C)O[C@@H]2C)C[C@H](O)[C@@H]1O [21-BD, 21-benzylidene digoxin]
Na,K-ATPase activity of mouse kidney membranes, dose-response (Na,K-ATPase α1 isoform [1]): Similarly, 21-BD inhibited the mouse kidney Na,K-ATPase with similar kinetics
competition of 3H-ouabain radioligand binding on HeLa cells (Na,K-ATPase α1 isoform [2]): 21-BD significantly competed with ouabain binding at concentrations in the µM range
IC50 (Pdr5p): 1.25 ± 0.36 µM
